Earlier results in patent US7935730B2, “Method of enhancing reproductive function of mammals by feeding of conjugated linoleic acids” (Cornell Research Foundation, Inc., priority 2006, dated 2011).

Assays:
[1] = in vivo
young rodents = details: proposed

Row | SMILES | effect on milk and body fat [1] | feed efficiency and growth (young rodents)
1 | CCCCC/C=C\C=C\CCCCCCCCC(=O)O [trans-10, cis-12 CLA] | reduction | –
2 | CCCCCC/C=C/C=C\CCCCCCCC(=O)O [cis-9, trans-11 CLA] | no effect | enhance
